Data: PubChem BioAssay AID1963830 (Molecular Pharmacology Branch, DTP, NCI, 2024)

Test system: 922993-354-T-J3-PDC complex spheroid viability
Experiment: Anticancer human tumor 922993-354-T-J3-PDC patient-derived endometrial carcinoma cell line growth inhibition [POLQ]
Conditions: for IC50: curve of first compound; for viability, T/C: stronger effect = lower value
Method in brief: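 Complex spheroid viability model combining PDC tumour cells with endothelial (HUVEC) and MSC stromal cells. Novobiocin, ART-558 or RP6685 were tested singly and in combination with standard and investigational anticancer drugs. Each was titrated in half-log steps from near clinical Cmax, or from 10 microM where Cmax was unknown.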

[1] = second compound 0.0316 µM, first compound 0.0316 µM
[2] = second compound 0.0316 µM, first compound 0.1 µM
[3] = second compound 0.0316 µM, first compound 0.316 µM
[4] = second compound 0.0316 µM, first compound 1 µM
[5] = second compound 0.0316 µM, first compound 3.16 µM
[6] = second compound 0.0316 µM, first compound 10 µM
[7] = second compound 0.1 µM, first compound 0.0316 µM
[8] = second compound 0.1 µM, first compound 0.1 µM
[9] = second compound 0.1 µM, first compound 0.316 µM
[10] = second compound 0.1 µM, first compound 1 µM
[11] = second compound 0.1 µM, first compound 3.16 µM
[12] = second compound 0.1 µM, first compound 10 µM
[13] = second compound 0.316 µM, first compound 0.0316 µM
[14] = second compound 0.316 µM, first compound 0.1 µM
[15] = second compound 0.316 µM, first compound 0.316 µM
[16] = second compound 0.316 µM, first compound 1 µM
[17] = second compound 0.316 µM, first compound 3.16 µM
[18] = second compound 0.316 µM, first compound 10 µM
[19] = second compound 1 µM, first compound 0.0316 µM
[20] = second compound 1 µM, first compound 0.1 µM
[21] = second compound 1 µM, first compound 0.316 µM
[22] = second compound 1 µM, first compound 1 µM
[23] = second compound 1 µM, first compound 3.16 µM
[24] = second compound 1 µM, first compound 10 µM
[25] = second compound 3.16 µM, first compound 0.0316 µM
[26] = second compound 3.16 µM, first compound 0.1 µM
[27] = second compound 3.16 µM, first compound 0.316 µM
[28] = second compound 3.16 µM, first compound 1 µM
[29] = second compound 3.16 µM, first compound 3.16 µM
[30] = second compound 3.16 µM, first compound 10 µM
[31] = second compound 10 µM, first compound 0.0316 µM
[32] = second compound 10 µM, first compound 0.1 µM
[33] = second compound 10 µM, first compound 0.316 µM
[34] = second compound 10 µM, first compound 1 µM
[35] = second compound 10 µM, first compound 3.16 µM
[36] = second compound 10 µM, first compound 10 µM
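Also: spheroids exposed to the agents for one week.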
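For viability, T/C in this document: 100% = DMSO vehicle control wells.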

In the case of `COc1cc(C2c3cc4c(cc3C(OC3OC5COC(C)OC5C(O)C3O)C3COC(=O)C23)OCO4)cc(OC)c1O` (stereo unspecified) + Cc1cccc(N(C)C(=O)C2C(O)CCN2c2nc(C)cc(C(F)(F)F)c2C#N)c1, the IC50 (second compound 0.0316 µM) is reported as 8070 nM, the IC50 (second compound 0.1 µM) is reported as 6050 nM and the IC50 (second compound 0.316 µM) is reported as 8240 nM. It also gave an IC50 (second compound 1 µM) of 8490 nM, an IC50 (second compound 3.16 µM) of 6330 nM and an IC50 (second compound 10 µM) of 1720 nM. The viability, T/C [1] was 101%, the viability, T/C [2] was 90% and the viability, T/C [3] was 91.2%. The viability, T/C [4] was 93.2%, the viability, T/C [5] was 89.8% and the viability, T/C [6] was 40.9%. For the same compound, the viability, T/C [7] was 101%, the viability, T/C [8] was 98.9% and the viability, T/C [9] was 95.9%. For the same compound, the viability, T/C [10] was 96.3%, the viability, T/C [11] was 68.9% and the viability, T/C [12] was 35.3%. For the same compound, the viability, T/C [13] was 112%, the viability, T/C [14] was 102% and the viability, T/C [15] was 99.5%. It also gave a viability, T/C [16] of 93.4%, a viability, T/C [17] of 80.8% and a viability, T/C [18] of 43.3%. It also gave a viability, T/C [19] of 92.2%, a viability, T/C [20] of 98.8% and a viability, T/C [21] of 96.3%. For the same compound, the viability, T/C [22] was 88.5%, the viability, T/C [23] was 76.5% and the viability, T/C [24] was 45.6%. It also gave a viability, T/C [25] of 102%, a viability, T/C [26] of 95.8% and a viability, T/C [27] of 89.9%. For the same compound, the viability, T/C [28] was 86%, the viability, T/C [29] was 74.9% and the viability, T/C [30] was 34.8%. The viability, T/C [31] was 100%, the viability, T/C [32] was 79.9% and the viability, T/C [33] was 92.1%. The viability, T/C [34] was 65.6%, the viability, T/C [35] was 32.1% and the viability, T/C [36] was 21.6%.
Compound `Nc1ccn(C2OC(CO)C(O)C2(F)F)c(=O)n1` (stereo unspecified) + Cc1cccc(N(C)C(=O)C2C(O)CCN2c2nc(C)cc(C(F)(F)F)c2C#N)c1 has an IC50 (second compound 0.0316 µM) of under 31.6 nM, an IC50 (second compound 0.1 µM) of under 31.6 nM and an IC50 (second compound 0.316 µM) of under 31.6 nM. It also gave an IC50 (second compound 1 µM) of under 31.6 nM, an IC50 (second compound 3.16 µM) of under 31.6 nM and an IC50 (second compound 10 µM) of under 31.6 nM. The viability, T/C [1] was 11.1%, the viability, T/C [2] was 10.3% and the viability, T/C [3] was 9.57%. The viability, T/C [4] was 11.8%, the viability, T/C [5] was 9.18% and the viability, T/C [6] was 9.18%. For the same compound, the viability, T/C [7] was 14.8%, the viability, T/C [8] was 10.9% and the viability, T/C [9] was 11.3%. For the same compound, the viability, T/C [10] was 10.7%, the viability, T/C [11] was 10.7% and the viability, T/C [12] was 11%. It also gave a viability, T/C [13] of 11.9%, a viability, T/C [14] of 11.5% and a viability, T/C [15] of 11.9%. For the same compound, the viability, T/C [16] was 9.92%, the viability, T/C [17] was 8.14% and the viability, T/C [18] was 9.97%. It also gave a viability, T/C [19] of 12.6%, a viability, T/C [20] of 9.47% and a viability, T/C [21] of 8.22%. For the same compound, the viability, T/C [22] was 8.9%, the viability, T/C [23] was 7.29% and the viability, T/C [24] was 10.3%. For the same compound, the viability, T/C [25] was 11.3%, the viability, T/C [26] was 10.2% and the viability, T/C [27] was 10.6%. It also gave a viability, T/C [28] of 7.56%, a viability, T/C [29] of 9.43% and a viability, T/C [30] of 10.6%. The viability, T/C [31] was 7.43%, the viability, T/C [32] was 8.87% and the viability, T/C [33] was 7.1%. For the same compound, the viability, T/C [34] was 6.45%, the viability, T/C [35] was 8.61% and the viability, T/C [36] was 8.92%.
Compound `O=c1[nH]cc(F)c(=O)[nH]1` + Cc1cccc(N(C)C(=O)C2C(O)CCN2c2nc(C)cc(C(F)(F)F)c2C#N)c1 has an IC50 (second compound 0.0316 µM) of 2290 nM, an IC50 (second compound 0.1 µM) of 2130 nM and an IC50 (second compound 0.316 µM) of 2100 nM. For the same compound, the IC50 (second compound 1 µM) was 2280 nM, the IC50 (second compound 3.16 µM) was 2540 nM and the IC50 (second compound 10 µM) was 2490 nM. For the same compound, the viability, T/C [1] was 102%, the viability, T/C [2] was 100% and the viability, T/C [3] was 93%. It also gave a viability, T/C [4] of 90%, a viability, T/C [5] of 34.6% and a viability, T/C [6] of 16.3%. It also gave a viability, T/C [7] of 89.5%, a viability, T/C [8] of 95.7% and a viability, T/C [9] of 97.8%. The viability, T/C [10] was 94.4%, the viability, T/C [11] was 26.9% and the viability, T/C [12] was 17.5%. The viability, T/C [13] was 108%, the viability, T/C [14] was 96.1% and the viability, T/C [15] was 102%. It also gave a viability, T/C [16] of 86.6%, a viability, T/C [17] of 29.7% and a viability, T/C [18] of 14.8%. The viability, T/C [19] was 103%, the viability, T/C [20] was 102% and the viability, T/C [21] was 98.1%. It also gave a viability, T/C [22] of 97.3%, a viability, T/C [23] of 31.1% and a viability, T/C [24] of 15.9%. It also gave a viability, T/C [25] of 103%, a viability, T/C [26] of 104% and a viability, T/C [27] of 101%. It also gave a viability, T/C [28] of 90.5%, a viability, T/C [29] of 40.6% and a viability, T/C [30] of 12.1%. It also gave a viability, T/C [31] of 104%, a viability, T/C [32] of 98.8% and a viability, T/C [33] of 111%. The viability, T/C [34] was 94.6%, the viability, T/C [35] was 38.3% and the viability, T/C [36] was 13.5%.
